Data reported in patent US20180139985A1 (priority 2015, published 2018).
Like-named read-outs stand apart in the source and are kept apart here. Bridge positions count the residues as written; N and C are the ends. Square brackets hold non-standard residues; d marks the D form. Peptide text beside a SMILES is read from it. * marks the point of attachment. Ileψ(thiazoline)Cys = CC[C@H](C)[C@H](N)C1=N[C@H](C(=O)*)CS1; dOrn = NCCC[C@@H](N)C(=O)O

Columns and labels:
[1] = system: Clostridium perfringens CP-013; format: in vivo, broiler chicken; conditions: for % Weight gain 1 to 14 d / % Weight gain 1 to 28 d / % Weight gain 14 to 28 d: [(final weight − initial weight)/initial weight] × 100; for Mean body weight (g) 1-d: day 1 (starting weight), n = 30
[2] = system: Clostridium perfringens; format: in vivo, broiler chicken; conditions: for Mean CFU per gram of chicken feces on Day 28 (n = 24): final day of study; for Mean CFU per gram of chicken feces on Day 21 (n = 6): five days after final challenge; for Mean CFU per gram of chicken feces on Day 10 (n = 10): pre-challenge

CC[C@H](C)[C@H](N)C1=N[C@H](C(=O)N[C@@H](CC(C)C)C(=O)N[C@H](CCC(=O)O)C(=O)N[C@H](C(=O)N[C@H]2CCCCNC(=O)[C@H](CC(N)=O)NC(=O)[C@@H](CC(=O)O)NC(=O)[C@H](Cc3cnc[nH]3)NC(=O)[C@@H](Cc3ccccc3)NC(=O)[C@H]([C@@H](C)CC)NC(=O)[C@@H](CCCN)NC2=O)[C@@H](C)CC)CS1 [Bacitracin] ({Ileψ(thiazoline)Cys}-L[dE]IK[dOrn]I[dF]H[dD]N; lactam 4-C)
% Weight gain 1 to 14 d ([1]; 55 ppm in feed): 941.1%
% Weight gain 1 to 28 d ([1]; 55 ppm in feed): 3566.0%
% Weight gain 14 to 28 d ([1]; 55 ppm in feed): 252.1%
Mean body weight (g) 1-d ([1]; 55 ppm in feed): 44.4 g
Mean CFU per gram of chicken feces on Day 28 (n = 24) ([2]; 55 ppm in feed): 0.0 CFU per gram
Mean CFU per gram of chicken feces on Day 21 (n = 6) ([2]; 55 ppm in feed): 2.5 × 10^1 ± 9.6 ^ CFU per gram
Mean CFU per gram of chicken feces on Day 10 (n = 10) ([2]; 55 ppm in feed): 8.6 × 10^2 ± 1.6 × 10^2 CFU per gram

Virginiamycin
% Weight gain 1 to 14 d ([1]; 2 ppm in feed): 1024.7%
% Weight gain 1 to 28 d ([1]; 2 ppm in feed): 3532.8%
% Weight gain 14 to 28 d ([1]; 2 ppm in feed): 223.0%
Mean body weight (g) 1-d ([1]; 2 ppm in feed): 44.5 g
Mean CFU per gram of chicken feces on Day 28 (n = 24) ([2]; 2 ppm in feed): 0.0 CFU per gram
Mean CFU per gram of chicken feces on Day 21 (n = 6) ([2]; 2 ppm in feed): 0.0 CFU per gram
Mean CFU per gram of chicken feces on Day 10 (n = 10) ([2]; 2 ppm in feed): 1.1 × 10^3 ± 2.2 × 10^2 CFU per gram
